Measurements reported in patent US20180318199A1, “Pharmaceutical Composition Having Anti-Aging Properties against High-Glucose” (TAIWAN LEADER BIOTECH CORP., priority 2017, published 2018).

Assays:
[1] = system: SIRT-1, SIRT-3 and SIRT-6; experiment: RT-PCR/Q-PCR of SIRT genes in HNDFs; type: cell-based, human; settings: 72 h
Description: As shown in the figures, to determine whether ANM regulates HNDF senescence through a SIRT-1-mediated pathway, expression levels of SIRT genes SIRT-1, SIRT-3 and SIRT-6 are is examined.
Total RNA is extracted and subjected to Q-PCR analysis to monitor SIRT-1, SIRT-3 and SIRT-6 expression. Relative mRNA levels are normalized by β-actin mRNA. Previous studies have shown that exposure of endothelial cells to HG rapidly decreases levels of expression of SIRT genes.
Total RNA is extracted from cultured HNDFs using Trizol Reagent (Thermo Fisher Scientific). Q-PCR analysis is performed using Applied Biosystems detection instruments and software. Forward and reverse primers (10 μM), and the working solution SYBR green, is used as a PCR master mix, under the following conditions: 96° C. for 3 minutes followed by 40 cycles at 96° C. for 1 minute, 50° C. for 30 seconds and 72° C. for 90 seconds. GAPDH is used as an internal standard to control for variability in amplification because of differences in starting mRNA concentrations. The copy number of each transcript is calculated as the relative copy number normalized by GAPDH copy number.

HUVECs [2] = experiment: Intracellular ROS (DCFH-DA assay) in HUVECs; type: cell-based, human; settings: ANM 10 μM + HG 30 mM, 48 h; HG alone 14.3-fold
Protocol: The intracellular ROS level is quantified by utilizing DCFH-DA assay. […] However, treatment of HUVECs with ANM resulted reduced ROS levels (6.1-fold), compared with HUVECs in HG that are not treated with ANM. In addition, in FIG. 9G, western blot analysis is performed to determine the protein expression levels of HO-1 and NQO-1.

HUVECs [3] = experiment: MTT cell viability in HUVECs; type: cell-based, human; settings: 48 h
Protocol: Please refer to FIG. 9A˜FIG. 9H, which are views showing HG-induced senescence prevented by ANM in human umbilical vein endothelial cells (HUVECs). As shown in the figures, to further delineate the protective effects of ANM on another cell system, experiments are designed to investigate the protective effect of ANM on HUVECs incubated in media containing either NG or HG alone or with ANM for 48 h. Cell viability is measured by MTT assay. […] Cell viability is determined by MTT assay. Percentage of viable cells are normalized with control cells (NG). […] In addition, in FIG. 9B, cellular senescence is determined by SA-β-gal activity assay. […] In addition, in FIG. 9C and FIG. 9D, total cell lysate is extracted and senescence-associated marker proteins including p16^INK4A, p21^CIP1 total and acetylated p53 and FoxO1 are measured by western blot analysis.
Cell viability is assessed by MTT colorimetric assay. Briefly, HNDFs (2×10^4cells/well) or HUVECs (5×10^4 cells/well) are seeded in a 24-well culture plate. […] The MTT formazan crystals are dissolved in 400 μL of DMSO and the samples are measured at 570 nm (A540) using an ELISA microplate reader (Bio-Tek Instruments, Winooski, Vt.). The percentage of cell viability (%) is calculated as (A570 of treated cells/A570 of untreated cells)×100.

Nrf2 = experiment: ARE luciferase reporter assay in HUVECs; type: cell-based, human; settings: ANM 10 μM or RES 5 μM + HG 30 mM, 6 h; HG alone 0.5-fold, control 1-fold
Protocol: Cell lysates are mixed with luciferase reagents and quantified using an illuminometer. Relative ARE promoter activity is calculated by dividing the relative luciferase unit (RLU) of treated cells by RLU of untreated cells (NG). Results are expressed as mean±SEM of three independent experiments. Statistical significance is set at ^ϕP<0.05 as compared to NG vs. HG and *P<0.05 as compared to HG vs. samples.
ARE promoter activity is measured using a dual-luciferase reporter assay system (Promega, Madison, Wis.). […] Cells are then transfected with ARE plasmid (Qiagen, Hilden, Germany) using Lipofectamine 2000 (Invitrogen) and incubated for 36 h. […] The cell lysate is prepared and incubated with luciferase agents and the relative luminescence intensity is quantified using a spectrophotometer (Hidex Oy, Turku, Finland).

wild-type C. elegans = experiment: C. elegans lifespan assay; type: in vivo, Caenorhabditis elegans
Protocol: It has been well documented that high glucose levels decrease the life span of C. elegans by increasing ROS formation and advance glycation end-product modification of mitochondrial proteins. Therefore, it is further investigated whether ANM has a protective effect against hyperglycemia-induced oxidative stress as well as anti-aging effects. Worms are incubated with high glucose (50 mM) with or without ANM […], and controlled for life span evaluation. In FIG. 8B, effect of ANM on the life span of C. elegans under hyperglycemic condition is examined. Age synchronized L1 larvae are transfected to NGM plates which contain HG (50 mM) with or without ANM (10 μM) and worms are developed to adulthood. The survival rate is scored everyday and is expressed as a percentage of survival. […] Results are expressed as mean±S.E.M of three independent experiments. Statistical significance is set at ^ϕP<0.05 as compared to control vs. HG, *P<0.05 as compared to HG vs. HG+sample and ̂P<0.05 as compared to control vs. samples.
Control worms are treated with 0.01% DMSO. All worms are kept 20° C. to develop adulthood. After 6 days, worms are transferred to plates containing glucose are applicable. Surviving and dead animals are counted daily (starting from the first day of adulthood) until all worms had died. […] Worms suffering from internal hatch (a defect in egg-laying) and those that crawled off the NGM plate are not included in the life-span assay. During the reproductive period, adult worms are transferred to fresh NGM plates every day during the progeny production period and then every other day thereafter. Life span assay result is obtained from three independent assays.

## C=C(CCC(C)C1CCC2C3=C(C(=O)C(O)C21C)C1(C)CCC(O)C(C)C1CC3)C(C)C(=O)O (centres unmarked) [ANM, antcin M]
[1]; ANM 10 μM + HG, Q-PCR
  SIRT-1 and SIRT-6 mRNA, HG-induced depletion: rescues
[1]; ANM 10 μM, no HG, vs control
  SIRT-1, SIRT-3 and SIRT-6 levels (RT-PCR): significantly increased
HUVECs [2]
  intracellular ROS levels in HUVECs: 6.1 fold
HUVECs [3]; ANM 10 μM or RES 5 μM + HG 30 mM, HG alone 35.01%
  number of viable HUVECs under HG: 79.78%
HUVECs [3]; ANM 10 μM or RES 5 μM
  cell viability of HUVECs, compound alone: does not affect cell viability
Nrf2
  relative ARE luciferase activity in HUVECs co-incubated with HG: 4.8 fold
wild-type C. elegans; ANM 10 μM or RES 438 μM vs control
  life span of C. elegans under normal condition: significantly (P<0.026) prolongs
wild-type C. elegans; HG 50 mM with ANM 10 μM vs HG alone
  life span of C. elegans under hyperglycemic condition: significant (P<0.0001) increase
